Experiments:
Type in all cases: in vivo
Male Sprague-Dawley rats [1] = assay: Lithium-pilocarpine induced epilepsy test (LI-PILO), intervention, i.v. at SE onset; conditions: iv; rat, administered at SE onset; read-out: Therapeutic effect (min, rat/lv) ED50(mg/kg)
Method: (§1) Biological Experimental Example 2: Lithium-Pilocarpine Induced Epilepsy Test (LI-PILO Test)
(§2) Male Sprague-Dawley rats (purchased from Orient Bio Inc. Korea) of body weight 175 grams were used for these studies and 3 rats per cage were housed for 4-5 days. On the day prior to SE, rats received 127 mg/kg lithium chloride (Sigma, St. Louis, Mo., U.S.A.) intraperitoneally (i.p.). Approximately 18-20 h following this treatment, rats were given an i.p. injection of 43 mg/kg pilocarpine (Sigma). An i.p. injection of 2 mg/kg methyl-scopolamine (Sigma) was administered 30 min prior to pilocarpine to block the effects of the muscarinic agonist on peripheral cholinergic receptors. Test drugs were dissolved in 20% tween80 (Sigma).
The drugs were administered intravenously (i.v.) in a volume of 2 ul/g body weight at SE onset. Pharmacological effects of all of the test materials were evaluated to compare test groups (n=3-6) with a control group (n=3-6). Control group was administered vehicle only. The animals were then transferred to observation cages and observed continuously for 90 min. Seizure was elicited in approximately 95% of the control group. […]
(§3) The results of Lithium-pilocarpine induced epilepsy test of the sulfamate derivative compounds measured in the above Experimental Example are shown in the following Tables 6.

male SD rats = assay: MES test (anti-epilepsy activity), rats, oral (rMES po); conditions: Rattus norvegicus, rats, at peak time
Method: (§4) Biological Experimental Example. 1: Measurement of Anti-Epilepsy Activity (MES-Test)
(§5) In the MES test (Ref., G. Villetti et al. Neuropharmacology 40(2001) 866-878), an electrical stimulus (mice: 50 mA, 60 Hz, 0.2 sec, and rats: 150 mA, 60 Hz, 0.2 sec in the test animal) supplied by an 11 A Shocker (IITC Life Science Company) was delivered through corneal electrodes. All mice or rats assigned to any electroshock at peak time were treated with each test compound sample which was dissolved in 20% tween 80 prepared by saline solvent applied orally before the test. […] Three doses of the test sample were administered orally to 9-18 animals (3-6 mice per dose) for evaluating the respective doses at which 50% of the animals were protected from seizure (ED50). The ED50 value (median effective close) was calculated by Litchfield and Wicoxon log-probit method which is a dose-response relationship. Experimental animals, male ICR mice and male SD rats, were purchased from OrientBio, Samtako, or Nara Biotech, Korea, and housed in cages (4-5 mice or 3 rats per cage) for 4-5 days. The range of mice body weight was between 19 and 25 grams and range of rats body weight was between 100 and 130 grams.
(§6) The obtained results are shown as mean±sem. The difference between the groups was statistically analyzed by ANOVA, and then further examined by Dunnett's test or Bonferroni test. If p is less than 0.05, it was determined that the difference between the groups had statistical significance.
(§7) The results of anti-epileptic activity of the sulfamate derivative compounds measured in the above Experimental Example are shown in the following Tables 4 and 5.

Male Sprague-Dawley rats [2] = assay: Lithium-pilocarpine induced epilepsy test (LI-PILO), prevention test, i.p.; conditions: rat, prevention
Method: as §1, §2
The drugs were administered intraperitoneally (i.p.) in a volume of 2 ul/g body weight. Pharmacological effects of all of the test materials were evaluated to compare test groups (n=6) with a control group (n=6). Control group was administered vehicle only. The efficacy was measured 0.5, 1, 2, or 4 hours after the administration of the test material. The time point that the most animals were protected was defined as peak time and the ED50 was determined at peak time. The animals were then transferred to observation cages and observed continuously for 90 min. Seizure was elicited in approximately 95% of the control group. Protection was defined as complete absence of seizure grade 3˜5 (Racine scale; Racine, 1972) over the 90-min observation period. The effective dose of the compound necessary to protect 50% of the animals against seizures compared to controls (i.e. ED50) was determined by a curve fitting program (Excel 2007, Microsoft).
as §3

male ICR mice = assay: MES test (anti-epilepsy activity), mice, oral (mMES po); conditions: Mus musculus, mice, at peak time
Method: as §4, §5, §6, §7

With `CC1(C)O[C@@H](COS(N)(=O)=O)[C@H](c2ccccc2Cl)O1` [Example 2, ((4S, 5S)-5-(2-chlorophenyl)-2,2-dimethyl-1,3-dioxolan-4-yl)methyl sulfamate] the ED50 (Male Sprague-Dawley rats [1]) was 89 mg/kg, the ED50 (male SD rats) was 3.5 mg/kg and the ED50 (Male Sprague-Dawley rats [2]; ip, at peak time, read-out: Anti-epileptogenesis (rat/ip) ED50(mg/kg)) was 97.1 mg/kg. For the same compound, the “Anti-epileptogenesis (rat/ip) Peak Time” value (Male Sprague-Dawley rats [2]) was 4 h and the ED50 (male ICR mice) was 9 mg/kg.

From patent US9937145B2, “Sulfamate derivative compound for use in preventing or treating epilepsy” (Bio-Pharm Solutions Co., Ltd., priority 2013, dated 2018)
